One data set addresses T1, human GLP-1 receptor (Homo sapiens, UniProt P43220).
T1 construct: expressed in transfected cells; host or cells: HEK-293
Description: cAMP response of HEK-293 cells stably expressing human GLP-1 receptor (HTRF). It counts as cell-based. The settings on record: Table 6; read-out: EC50 hGLP-1R. The gist of the method:
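HEK-293 cells stably expressing the receptor were taken up in HBSS/20 mM HEPES/0.1% BSA with 2 mM IBMX at 400000 cells/ml. They were exposed to increasing concentrations of peptide for 30 minutes at room temperature, and formed cAMP was measured by HTRF.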
On the technique in general: Time-resolved FRET reads energy transfer from a long-lived donor to a nearby acceptor.

In a further data set the target is T2, human glucagon receptor (Homo sapiens, UniProt P47871).
T2 construct: expressed in transfected cells; host or cells: HEK-293
In words: cAMP response of HEK-293 cells stably expressing human glucagon receptor (HTRF). It counts as cell-based. The note with it: Table 6; read-out: EC50 hGlucagon-R. How it is done: (§1) For preparation, cells were split into T175 culture flasks and grown overnight to near confluency in medium (DMEM/10% FBS). Medium was then removed and cells washed with PBS lacking calcium and magnesium, followed by proteinase treatment with accutase (Sigma-Aldrich cat. no. A6964). Detached cells were washed and resuspended in assay buffer (1×HBSS; 20 mM HEPES, 0.1% BSA, 2 mM IBMX) and cellular density determined. They were then diluted to 400000 cells/ml and 25 μl-aliquots dispensed into the wells of 96-well plates. For measurement, 25 μl of test compound in assay buffer was added to the wells, followed by incubation for 30 minutes at room temperature. […] Potencies of peptidic compounds at the GLP-1, glucagon and GIP receptors were determined by exposing cells expressing human glucagon receptor (hGlucagon R), human GIP receptor (hGIP-R) or human GLP-1 receptor (hGLP-1R) to the listed compounds at increasing concentrations and measuring the formed cAMP as described in Methods.

The target in another data set is T3, human GIP receptor (Homo sapiens, UniProt P48546).
T3 construct: expressed in transfected cells; host or cells: HEK-293
T3 sequence (P48546 22-466): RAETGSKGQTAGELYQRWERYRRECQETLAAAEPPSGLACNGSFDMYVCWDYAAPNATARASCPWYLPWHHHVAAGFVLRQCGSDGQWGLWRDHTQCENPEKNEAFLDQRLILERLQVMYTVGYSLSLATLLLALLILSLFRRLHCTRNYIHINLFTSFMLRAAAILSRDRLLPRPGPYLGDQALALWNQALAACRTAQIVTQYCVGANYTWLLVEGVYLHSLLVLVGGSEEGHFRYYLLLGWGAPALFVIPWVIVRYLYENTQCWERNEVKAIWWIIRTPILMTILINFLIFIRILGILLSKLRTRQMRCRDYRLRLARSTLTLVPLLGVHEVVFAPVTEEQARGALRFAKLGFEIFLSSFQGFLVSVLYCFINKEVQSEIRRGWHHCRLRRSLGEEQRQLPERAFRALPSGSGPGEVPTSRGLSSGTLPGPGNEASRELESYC
In words: cAMP response of HEK-293 cells stably expressing human GIP receptor (HTRF). Type of data set: cell-based. The settings on record: Table 6; read-out: EC50 hGIP-R. How it is done: as §1

The nature of data set [1]: Solubility testing in buffer (HPLC-UV). Type of data set: physicochemical. How it is done:
Prior to the testing of solubility and stability of a peptide batch, its purity (HPLC-UV) was determined. […] Therefore, solutions from solid samples were prepared in different buffer systems with a concentration of 10 mg/mL compound based on the previously determined % purity. HPLC-UV was performed after 2 h of gentle agitation from the supernatant, which was obtained by 20 min of centrifugation at 4500 rpm. […] This analysis also served as starting point (t0) for the stability testing.

Data set [2] in a line: Stability testing in solution, 7 days at 40° C. (HPLC-UV). Type of data set: physicochemical. The note with it: for Stability pH 4.5: pH 4.5, 7 days at 40° C. in solution; for Stability pH 7.4: pH 7.4, 7 days at 40° C. in solution. How it is done: After that time course, the sample was centrifuged for 20 min at 4500 rpm and 0.2 μL of the supernatant were analysed with HPLC-UV.
For determination of the amount of the remaining peptide, the peak areas of the target compound at t0 and t7 were compared, resulting in “% remaining peptide”, following the equation % remaining peptide=[(peak area peptide t7)×100]/peak area peptide t0.
The stability is expressed as “% remaining peptide”.

In data set [3] the test system is female diet-induced obese (DIO) C57BL/6 mice. Description: Chronic effect on body weight and body fat in female DIO C57BL/6 mice. It counts as in vivo. The settings on record: 50 μg/kg bid s.c., 4 weeks; for Body fat change / Overall weight change: Table 10 (Example 7), mean ± SEM; for Body fat change: NMR. How it is done: C57BL/6 Harlan mice are housed in groups in a specific pathogen-free barrier facility on a 12 h light/dark cycle with free access to water and standard or high-fat diet. After prefeeding on high-fat diet, mice are stratified to treatment groups (n=8), so that each group has similar mean body weight. An age-matched group with ad-libitum access to standard chow is included as standard control group. Before the experiment, mice are subcutaneously (s.c.) injected with vehicle solution and weighed for 3 days to acclimate them to the procedures.
Body weight is recorded daily. Two days before start of treatment and on day 26, total fat mass is measured by nuclear magnetic resonance (NMR).
Statistical analyses are performed with Everstat 6.0 by repeated measures two-way ANOVA and Dunnetts post-hoc analyses (glucose profile) and 1-way-ANOVA, followed by Dunnetts post-hoc test (body weight, body fat). Differences versus vehicle-treated DIO control mice are considered statistically significant at the p<0.05 level.
Female obese C57BL/6 mice were treated for 4 weeks twice daily subcutaneously with 50 μg/kg SEQ ID NO: 6, 50 μg/kg SEQ ID NO: 7 or vehicle. Body weight was recorded daily, and body fat content was determined before the start and after 4 weeks of treatment. […] These changes resulted from a decrease in body fat, as shown by the absolute changes in body fat content (Table 10, FIG. 3).
Female obese C57BL/6 mice were treated for 4 weeks twice daily subcutaneously with 50 μg/kg SEQ ID NO: 9 or vehicle. Body weight was recorded daily, and body fat content was determined before the start and after 4 weeks of treatment.

Setting [4] is: pH 4.5, target concentration 10 mg/ml, read-out: solubility pH 4.5.
The mark [5] stands for this setting: pH 7.4, target concentration 10 mg/ml, read-out: solubility pH 7.4.

Structures are written as SMILES. ≈ marks a conversion by molar mass, not a printed value. Read-outs that look alike come from different tables or passages of the source.

T1 sequence (P43220 24-463): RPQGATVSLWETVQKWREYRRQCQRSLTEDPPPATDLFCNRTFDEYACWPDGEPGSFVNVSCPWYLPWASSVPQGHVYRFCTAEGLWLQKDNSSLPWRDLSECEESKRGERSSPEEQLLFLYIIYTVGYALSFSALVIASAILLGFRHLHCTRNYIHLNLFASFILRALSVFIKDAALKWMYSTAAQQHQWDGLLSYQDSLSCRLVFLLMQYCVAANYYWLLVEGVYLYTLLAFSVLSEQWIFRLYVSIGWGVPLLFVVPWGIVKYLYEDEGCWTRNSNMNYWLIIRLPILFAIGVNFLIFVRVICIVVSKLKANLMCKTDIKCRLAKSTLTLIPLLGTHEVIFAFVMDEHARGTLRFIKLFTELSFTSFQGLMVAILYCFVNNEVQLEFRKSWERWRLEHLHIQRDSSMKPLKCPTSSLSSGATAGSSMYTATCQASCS
T2 sequence (P47871 26-477): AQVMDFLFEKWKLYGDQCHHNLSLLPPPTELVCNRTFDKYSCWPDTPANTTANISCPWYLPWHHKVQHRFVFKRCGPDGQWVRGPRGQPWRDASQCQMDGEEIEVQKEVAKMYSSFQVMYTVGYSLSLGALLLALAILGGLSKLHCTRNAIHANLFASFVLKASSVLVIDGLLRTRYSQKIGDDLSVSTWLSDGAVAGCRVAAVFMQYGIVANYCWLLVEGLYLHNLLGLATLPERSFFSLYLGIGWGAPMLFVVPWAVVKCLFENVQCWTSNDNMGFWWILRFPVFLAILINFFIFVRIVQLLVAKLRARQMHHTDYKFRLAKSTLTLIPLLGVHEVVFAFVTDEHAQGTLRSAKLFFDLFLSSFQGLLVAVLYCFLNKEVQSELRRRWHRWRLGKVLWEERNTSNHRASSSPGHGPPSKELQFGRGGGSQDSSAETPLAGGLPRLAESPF

Take `CCCCCCCCCCCCCCCC(=O)N[C@@H](CCC(=O)N[C@@H](CCC(=O)NCCCC[C@H](NC(=O)[C@H](CCC(N)=O)NC(=O)[C@H](CCCCN)NC(=O)[C@H](CO)NC(=O)[C@H](CC(C)C)NC(=O)[C@H](CC(=O)O)NC(=O)[C@H](CO)NC(=O)[C@@H](NC(=O)[C@H](Cc1ccccc1)NC(=O)[C@@H](NC(=O)CNC(=O)[C@H](Cc1c[nH]cn1)NC(=O)[C@@H](CO)NC(=O)[C@@H](N)Cc1c[nH]cn1)[C@@H](C)O)[C@@H](C)O)C(=O)N[C@@H](CCC(=O)O)C(=O)N[C@@H](CCC(=O)O)C(=O)N[C@@H](CCC(=O)O)C(=O)N[C@@H](C)C(=O)N[C@@H](C)C(=O)N[C@@H](CCCNC(=N)N)C(=O)N[C@@H](CC(C)C)C(=O)N[C@@H](Cc1ccccc1)C(=O)N[C@H](C(=O)N[C@@H](CCC(=O)O)C(=O)N[C@@H](Cc1c[nH]c2ccccc12)C(=O)N[C@@H](CC(C)C)C(=O)NC(C)(C)C(=O)N[C@@H](C)C(=O)NCC(=O)NCC(=O)N1CCC[C@H]1C(=O)N[C@@H](CO)C(=O)N[C@@H](CO)C(=O)NCC(=O)N[C@@H](C)C(=O)N1CCC[C@H]1C(=O)N1CCC[C@H]1C(=O)N1CCC[C@H]1C(=O)N[C@@H](CO)C(N)=O)[C@@H](C)CC)C(=O)O)C(=O)O` [SEQ ID NO: 6, H-dSer-H-G-T-F-T-S-D-L-S-K-Q-K(γE-γE-x53)-E-E-E-A-A-R-L-F-I-E-W-L-Aib-A-G-G-P-S-S-G-A-P-P-P-S-NH2]: on human GLP-1 receptor, the EC50 is 0.0026 nM. Moreover, the EC50 at human glucagon receptor was 0.0177 nM. At human GIP receptor, the EC50 came out at 1.54 nM. Moreover, in data set [1] (setting [4]), the solubility at 2 h is over 8000 µg/mL. Besides, the solubility at 2 h in data set [1] (setting [5]) is over 8000 µg/mL. For the same compound, in data set [2], the “Stability pH 4.5” value came out at 100.0 % remaining peptide and the “Stability pH 7.4” value was found to be 92.0 % remaining peptide. For the same compound, in data set [3], the “daily body weight compared to vehicle DIO control mice” value is on record as “decrease in daily body weight”, the Body fat change was -4.64 ± 0.4 g and the Overall weight change was -6.08 ± 0.6 g.
As to `CCCCCCCCCCCCCCCC(=O)N[C@@H](CCC(=O)N[C@@H](CCC(=O)NCCCC[C@H](NC(=O)[C@H](CCC(N)=O)NC(=O)[C@H](CCCCN)NC(=O)[C@H](CO)NC(=O)[C@H](CC(C)C)NC(=O)[C@H](CC(=O)O)NC(=O)[C@H](CO)NC(=O)[C@@H](NC(=O)[C@H](Cc1ccccc1)NC(=O)[C@@H](NC(=O)CNC(=O)[C@H](Cc1c[nH]cn1)NC(=O)[C@@H](CO)NC(=O)[C@@H](N)Cc1c[nH]cn1)[C@@H](C)O)[C@@H](C)O)C(=O)N[C@@H](CC(=O)O)C(=O)N[C@@H](CCC(=O)O)C(=O)N[C@@H](CCC(=O)O)C(=O)N[C@@H](C)C(=O)N[C@@H](C)C(=O)N[C@@H](CCCNC(=N)N)C(=O)N[C@@H](CC(C)C)C(=O)N[C@@H](Cc1ccccc1)C(=O)N[C@H](C(=O)N[C@@H](CCC(=O)O)C(=O)N[C@@H](Cc1c[nH]c2ccccc12)C(=O)N[C@@H](CC(C)C)C(=O)NC(C)(C)C(=O)N[C@@H](C)C(=O)NCC(=O)NCC(=O)N1CCC[C@H]1C(=O)N[C@@H](CO)C(=O)N[C@@H](CO)C(=O)NCC(=O)N[C@@H](C)C(=O)N1CCC[C@H]1C(=O)N1CCC[C@H]1C(=O)N1CCC[C@H]1C(=O)N[C@@H](CO)C(N)=O)[C@@H](C)CC)C(=O)O)C(=O)O` [SEQ ID NO: 7, H-dSer-H-G-T-F-T-S-D-L-S-K-Q-K(γE-γE-x53)-D-E-E-A-A-R-L-F-I-E-W-L-Aib-A-G-G-P-S-S-G-A-P-P-P-S-NH2], the EC50 on human GLP-1 receptor came to 0.0015 nM; on human glucagon receptor it was 0.009 nM; on human GIP receptor it was 0.908 nM. Moreover, the figures for the solubility at 2 h in data set [1] (setting [4]) and in data set [1] (setting [5]) were 2200 µg/mL (≈ 479 µM) and over 8000 µg/mL, respectively. Further, the “Stability pH 4.5” value in data set [2] worked out at 100.0 % remaining peptide. In addition, in data set [2], the “Stability pH 7.4” value is listed as 90.0 % remaining peptide. Moreover, the “daily body weight compared to vehicle DIO control mice” value in data set [3] is “decrease in daily body weight”. In data set [3], this compound returned a Body fat change of -5.12 ± 0.6 g. Further, in data set [3], the Overall weight change is -7.25 ± 0.7 g.
Regarding `CCCCCCCCCCCCCCCC(=O)N[C@@H](CCC(=O)NCCCC[C@H](NC(=O)[C@H](CCC(N)=O)NC(=O)[C@H](CCCCN)NC(=O)[C@H](CO)NC(=O)[C@H](CC(C)C)NC(=O)[C@H](CC(=O)O)NC(=O)[C@H](CO)NC(=O)[C@@H](NC(=O)[C@H](Cc1ccccc1)NC(=O)[C@@H](NC(=O)CNC(=O)[C@H](CCC(N)=O)NC(=O)[C@@H](CO)NC(=O)[C@@H](N)Cc1c[nH]cn1)[C@@H](C)O)[C@@H](C)O)C(=O)N[C@@H](CC(=O)O)C(=O)N[C@@H](CCC(=O)O)C(=O)N[C@@H](CCC(=O)O)C(=O)N[C@@H](C)C(=O)N[C@@H](C)C(=O)N[C@@H](CCCNC(=N)N)C(=O)N[C@@H](CC(C)C)C(=O)N[C@@H](Cc1ccccc1)C(=O)N[C@H](C(=O)N[C@@H](CCC(=O)O)C(=O)N[C@@H](Cc1c[nH]c2ccccc12)C(=O)N[C@@H](CC(C)C)C(=O)NC(C)(C)C(=O)N[C@@H](C)C(=O)NCC(=O)NCC(=O)N1CCC[C@H]1C(=O)N[C@@H](CO)C(=O)N[C@@H](CO)C(=O)NCC(=O)N[C@@H](C)C(=O)N1CCC[C@H]1C(=O)N1CCC[C@H]1C(=O)N1CCC[C@H]1C(=O)N[C@@H](CO)C(N)=O)[C@@H](C)CC)C(=O)O` [SEQ ID NO: 14, H-dSer-Q-G-T-F-T-S-D-L-S-K-Q-K(γE-x53)-D-E-E-A-A-R-L-F-I-E-W-L-Aib-A-G-G-P-S-S-G-A-P-P-P-S-NH2], the EC50 at human GLP-1 receptor turned out to be 0.0021 nM; at human glucagon receptor, 0.0247 nM; at human GIP receptor it was 5.36 nM. Also, the solubility at 2 h in data set [1] (setting [4]) and in data set [1] (setting [5]) was over 8000 µg/mL in each case. Moreover, in data set [2], the “Stability pH 4.5” value amounted to 94.7 % remaining peptide. Moreover, the “Stability pH 7.4” value in data set [2] is listed as 96.3 % remaining peptide.

A word on the EC50: it is the concentration at which the effect is half-maximal. By solubility is commonly meant how much of the substance goes into solution per volume.

For the origin of these results see US9758561B2 (priority 2014, dated 2017).
